This is an account of results in patent US20260356823A1, “SODIUM CHANNEL REGULATOR AND USE THEREOF” (SHANGHAI HUILUN PHARMACEUTICAL CO., LTD., priority 2022, published 2026).

For one data set, the target named is T1, human Nav1.8 (Homo sapiens, UniProt Q9Y5Y9).
T1 construct: expressed in transfected cells
Put plainly: In vitro inhibition of Nav1.8, manual patch clamp on HEK293 cells stably expressing human Nav1.8. Format: cell-based. The following applies: human Nav1.8, manual patch clamp; for inhibition at 0.1 µM: HEK293, 100 nM, read-out: Inhibitory activity (inhibition/% at 100 nM concentration). How it is done: Bioactivity Test 1: In Vitro Inhibition of Nav1.8 by the Compound
By using a manual patch clamp on HEK293 cells stably expressing human Nav1.8, currents on Nav1.8 before and after administration of the compound were compared after the currents on Nav1.8 were stable, to obtain the effect of the compound on the Nav1.8 channel.
The to-be-tested compound was dissolved in DMSO to prepare a 9 mM stock solution, which was taken and dissolved in extracellular fluid at a desired concentration on the day of testing. The extracellular fluid included the following ingredients (mM): NaCl, 137; KCl, 4; CaCl2, 1.8; MgCl2, 1; HEPES, 10; glucose, 10; and pH 7.4 (NaOH titration). All reagents were purchased from Sigma (St. Louis, MO).
The cells were clamped at −80 mV and depolarized with a sustained 10 ms square wave to 10 mV to obtain a current on Nav1.8. This process was repeated every 5 seconds. A maximum current caused by the square wave was detected. After the current is stable, the to-be-tested compound (dissolved in the extracellular fluid at the desired concentration) was perfused. After the current is stable, the strength of blocking Nav1.8 by the compound was calculated based on the currents before and after perfusion of the compound. pCLAMP 10 (Molecular Devices, Union City, CA) was used. That the current is stable means that the current changes over time within a limited range.

For the next data set, the target named is T2, Nav1.8 sodium channel (Homo sapiens, UniProt Q9Y5Y9).
T2 construct: expressed in transfected cells
T2 sequence (Q9Y5Y9 whole entry): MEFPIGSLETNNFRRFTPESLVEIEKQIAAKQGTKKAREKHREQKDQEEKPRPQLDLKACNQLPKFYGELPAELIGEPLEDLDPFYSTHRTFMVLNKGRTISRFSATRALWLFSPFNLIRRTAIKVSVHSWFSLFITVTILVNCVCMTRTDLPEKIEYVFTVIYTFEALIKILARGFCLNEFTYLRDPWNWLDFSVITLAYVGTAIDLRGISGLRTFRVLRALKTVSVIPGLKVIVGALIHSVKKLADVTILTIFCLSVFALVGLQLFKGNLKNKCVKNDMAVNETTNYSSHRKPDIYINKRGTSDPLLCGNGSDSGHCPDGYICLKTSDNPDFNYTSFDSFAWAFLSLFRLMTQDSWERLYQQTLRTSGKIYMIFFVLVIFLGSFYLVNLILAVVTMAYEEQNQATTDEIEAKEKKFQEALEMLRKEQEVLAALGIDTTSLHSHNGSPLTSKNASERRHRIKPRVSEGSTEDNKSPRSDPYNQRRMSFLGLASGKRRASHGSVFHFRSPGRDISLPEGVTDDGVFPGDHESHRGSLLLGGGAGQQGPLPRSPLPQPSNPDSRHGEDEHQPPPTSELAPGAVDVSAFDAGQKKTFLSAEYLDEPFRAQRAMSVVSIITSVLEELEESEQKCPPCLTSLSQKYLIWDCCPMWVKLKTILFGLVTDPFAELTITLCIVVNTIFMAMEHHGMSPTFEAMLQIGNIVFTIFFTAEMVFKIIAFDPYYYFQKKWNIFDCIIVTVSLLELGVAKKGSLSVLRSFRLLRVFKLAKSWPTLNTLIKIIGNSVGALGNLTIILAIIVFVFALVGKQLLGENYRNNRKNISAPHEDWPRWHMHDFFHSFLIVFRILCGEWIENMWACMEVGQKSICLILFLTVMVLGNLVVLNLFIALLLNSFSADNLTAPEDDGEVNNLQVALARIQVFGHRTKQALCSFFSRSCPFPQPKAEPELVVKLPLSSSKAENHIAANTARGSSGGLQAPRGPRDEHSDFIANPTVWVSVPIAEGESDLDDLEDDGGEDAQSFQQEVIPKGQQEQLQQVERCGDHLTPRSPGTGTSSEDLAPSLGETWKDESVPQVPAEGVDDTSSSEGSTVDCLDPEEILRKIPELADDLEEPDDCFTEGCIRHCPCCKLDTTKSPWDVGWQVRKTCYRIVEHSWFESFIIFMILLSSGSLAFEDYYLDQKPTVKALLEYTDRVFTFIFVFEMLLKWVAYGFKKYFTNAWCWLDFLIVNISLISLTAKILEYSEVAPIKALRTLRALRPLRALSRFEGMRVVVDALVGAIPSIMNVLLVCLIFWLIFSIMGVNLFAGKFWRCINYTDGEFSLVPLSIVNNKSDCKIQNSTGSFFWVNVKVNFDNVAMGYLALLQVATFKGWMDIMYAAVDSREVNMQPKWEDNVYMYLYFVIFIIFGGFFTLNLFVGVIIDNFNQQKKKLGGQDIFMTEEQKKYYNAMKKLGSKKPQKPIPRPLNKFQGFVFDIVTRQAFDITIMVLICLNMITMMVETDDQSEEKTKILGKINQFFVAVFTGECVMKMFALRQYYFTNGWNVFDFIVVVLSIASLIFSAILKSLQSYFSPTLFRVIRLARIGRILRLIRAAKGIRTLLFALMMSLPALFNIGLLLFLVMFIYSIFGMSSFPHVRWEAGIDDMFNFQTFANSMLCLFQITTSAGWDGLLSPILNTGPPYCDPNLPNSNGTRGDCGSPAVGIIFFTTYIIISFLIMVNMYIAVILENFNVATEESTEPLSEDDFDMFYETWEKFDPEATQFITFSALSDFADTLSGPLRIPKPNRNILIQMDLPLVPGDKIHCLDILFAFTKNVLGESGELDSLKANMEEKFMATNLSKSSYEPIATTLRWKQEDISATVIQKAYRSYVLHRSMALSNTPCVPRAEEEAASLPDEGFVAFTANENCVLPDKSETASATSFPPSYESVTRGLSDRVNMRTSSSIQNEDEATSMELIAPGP
Put plainly: In vitro inhibition IC50 of Nav1.8, whole-cell patch clamp on CHO cell line stably expressing Nav1.8 (SCN10A, NM_006514). Format: cell-based. Particulars: CHO cells stably expressing Nav1.8, whole-cell patch clamp, room temperature. The text has this: Bioactivity Test 2: In Vitro Inhibition IC50 of Nav1.8 by the Test Compound
A CHO cell line stably expressing the Nav1.8 sodium channel was used for experimental assays with the following gene information: Sodium channel, voltage-gated, type 8, alpha (SCN10A), cDNA strictly similar to GenBank accession number: NM_006514.
Before the patch clamp assay, the cells were detached with 0.25%-Trypsin-EDTA, and 6.5×10^3 cells were spread onto cover slips and cultured in a 24-well plate (final volume: 500 μL) for 18 h. Then, the assay was carried out.
Fluids for electrophysiological recording included: extracellular fluid: K-007-1, 140 mM NaCl, 3.5 mM KCl, 1 mM MgCl2·6H2O, 2 mM CaCl2·2H2O, 10 mM D-Glucose, 10 mM HEPES, 1.25 mM NaH2PO4·2H2O, and NaOH for adjustment to pH=7.4; and intracellular fluid: Nav-001-2, 50 mM CsCl, 10 mM NaCl, 10 mM HEPES, 60 mM CsF, 20 mM EGTA, and […]. The extracellular fluid was stored for 2 weeks. The intracellular fluid was prepared and dispensed as 1 mL per tube, and frozen in a refrigerator at −20° C. Freshly thawed intracellular fluid was used for daily experiments. All intracellular fluids have to be used up within three months. Beyond three months, the old intracellular fluid has to be discarded, and the intracellular fluid needs to be prepared again.
Patch clamp assay: Whole-cell patch-clamp recording Nav1.8 sodium currents under voltage stimulation was carried out as follows: When a whole-cell seal was formed, the cell was clamped at a voltage of −120 mV and maintained for 30 ms. The cell was depolarized from the clamping voltage to 0 mV and maintained for 50 ms. Then, the voltage was restored to −50 mV (for a specific voltage, refer to a half-inactivation voltage from an IV test) and maintained for 5 s. Next, the cell membrane potential was restored to −120 mV and maintained for 20 ms. Then, the cell was depolarized to 0 mV and maintained for 50 ms. Finally, the voltage was restored to the clamping voltage −120 mV and maintained for 30 ms. Data was collected at […]. The effect of the drug on a peak sodium current was observed. Experimental data was collected by an EPC 10 amplifier (HEKA) and stored in PatchMaster (HEKA) software.
A capillary glass tube was pulled into a recording electrode by using a microelectrode puller. The electrode filled with the intracellular fluid was loaded into an electrode holder. A microelectrode manipulator was manipulated under an inverted microscope to immerse the electrode into the extracellular fluid, and an electrode resistance (Rpip) was recorded. The electrode was brought into contact with the cell surface, and suction was applied under negative pressure to form a high-resistance seal (GQ). In this case, fast capacitance compensation was carried out, and negative pressure was then applied to break the cell membrane through suction to form a whole-cell recording mode. Then, slow capacitance compensation was carried out, and experimental parameters such as a membrane capacitance (Cm) and a series resistance (Rs) were recorded. No leakage compensation was carried out.
The drug was administered after the Nav1.8 current obtained by whole-cell recording. The drug acted at each concentration for 5 min (or until the current was stable), and then the drug was tested at a next concentration. Each test compound was tested for multiple concentrations. The cover slips with the cells spread were placed in a recording bath under an inverted microscope. A blank control extracellular fluid and a working solution of the to-be-tested compound were perfused by gravity through the recording bath into the cells from low concentration to high concentration. Fluid exchange was carried out by using a peristaltic pump during the recording. A current detected for each cell in the compound-free extracellular fluid served as its own control. For each concentration, at least three cells were tested independently for three times. […]
In general terms: The patch-clamp technique gives a direct electrical read-out from membranes.

For another data set, the system named is Nav1.8. Particulars: background; cited from earlier work.
For data set [1] the following is noted: background; cited from earlier work.
Data set [2] is described as follows: Efficacy on a mouse model of incisional pain, mechanical pain threshold (PWT). Format: in vivo. The following applies: intravenous. From the text: Bioactivity Test 3: Efficacy of the Compound on a Mouse Model of Incisional Pain
Model establishment: Through isoflurane anesthesia and routine disinfection, a 0.5 cm longitudinal skin incision extending to the toe was made with a blade on the plantar surface of the left hindfoot about 0.2 cm distal to the joint; and the plantar muscle was separated, slightly elevated, and then incised longitudinally, taking care not to disrupt the muscle origin. The incision was sutured horizontally and interruptedly with 5-0 nylon thread (2 sutures).
Solvents: A solvent for the test compound was 5% DMSO+10% Solutol+85% Saline, and a solvent for a positive compound TRV-130 was 10% ethanol+10% cremophor+80% water. […]
Mechanical pain threshold measurement: Before modeling, a pre-modeling mechanical pain threshold was measured. At 2.5 h after modeling, a pre-administration mechanical pain threshold was measured. Oral administration was carried out after the measurement, and a mechanical pain threshold was measured at 2 h after the administration. […] Each animal was measured three times at intervals of 3-5 minutes, and an average value was calculated.
Data analysis: Relevant data was organized in Office Excel 2013 and GraphPad Prism 6.0. Data was expressed as Mean±SEM (standard error). […]

T1 sequence (Q9Y5Y9 whole entry): as above

What is called IC50 is the concentration that inhibits the measured activity by half. Regarding `COc1c([C@H]2[C@H](C(=O)Nc3ccc4c(c3)NC(=O)C4)O[C@@](C)(C(F)(F)F)[C@H]2C)ccc(F)c1F` (relative stereo) [Example 2], at human Nav1.8, the inhibition at 0.1 µM was no less than 50%. At Nav1.8 sodium channel, this compound yielded an IC50 of 67 nM.
For `COc1c([C@H]2[C@H](C(=O)Nc3ccc4cn[nH]c(=O)c4c3)O[C@@](C)(C(F)(F)F)[C@H]2C)ccc(F)c1F` (relative stereo) [Example 3, rel-(2R,3S,4S,5R)-3-(3,4-difluoro-2-methoxyphenyl)-4,5-dimethyl-N-4-oxa-3,4-dihydrophthalazin-6-yl)-5-(trifluoromethyl)tetrahydrofuran-2-carboxamide] the same measures were no less than 50% and 9 nM.
For `COc1c([C@H]2[C@H](C(=O)Nc3ccc4c(c3)C(=O)NCC4)O[C@@](C)(C(F)(F)F)[C@H]2C)ccc(F)c1F` (relative stereo) [Example 6, rel-(2R,3S,4S,5R)-3-(3,4-difluoro-2-methoxyphenyl)-4,5-dimethyl-N-(1-oxo-1,2,3,4-tetrahydroisoquinolin-7-yl)-5-(trifluoromethyl)tetrahydrofuran-2-carboxamide] the same measures were no less than 50% and 2 nM.
For `CONC(=O)c1cc(NC(=O)[C@@H]2O[C@@](C)(C(F)(F)F)[C@@H](C)[C@H]2c2ccc(F)c(F)c2OC)ccn1` (relative stereo) [Example 21] the same measures were no less than 50% and 26 nM.
Take `COc1c([C@H]2[C@H](C(=O)Nc3ccnc(C(N)=O)c3)OC3(C(F)(F)F)CCC23C)ccc(F)c1F` (relative stereo) [Example 59, rel-(2R,3S)-4-({[3-(3,4-difluoro-2-methoxyphenyl)-3a-methyl-5a-(trifluoromethyl)hexahydrocyclobuta[2,1-b]furan-2-yl]carbonyl}amino)pyridin-2-carboxamide]: the inhibition at 0.1 µM on human Nav1.8 is no less than 50%. In addition, on Nav1.8 sodium channel, the IC50 worked out at 2 nM.
Consider `COc1c(C2[C@H](C(=O)Nc3ccc(F)c(S(N)(=O)=O)c3)O[C@@](C)(C(F)(F)F)[C@H]2C)ccc(F)c1F` (relative stereo) [Example 81], for which, at human Nav1.8, the inhibition at 0.1 µM is no less than 50%. The IC50 against Nav1.8 sodium channel is less than 0.5 nM.
On to `[2H]C([2H])([2H])NS(=O)(=O)c1cc(NC(=O)[C@@H]2O[C@@](C)(C(F)(F)F)[C@@H](C)[C@H]2c2ccc(F)c(F)c2OC)ccn1` (relative stereo) [Example 82, rel-(2R,3S,4S,5R)-3-(3,4-difluoro-2-methoxyphenyl)-4,5-dimethyl-N-(2-(N-(methyl-d3)sulfamoyl)pyridin-4-yl)-5-(trifluoromethyl)tetrahydrofuran-2-carboxamide], for which the inhibition at 0.1 µM at human Nav1.8 is no less than 50%. Moreover, the IC50 on Nav1.8 sodium channel is less than 1 nM.
Turning to `COc1c([C@H]2[C@H](C(=O)Nc3ccc(F)c(C(N)=O)c3)O[C@]3(C(F)(F)F)CC[C@]23C)ccc(F)c1F` (relative stereo) [Example 85, rel-(1R,3R,4S,5R)—N-(3-carbamoyl-4-fluorophenyl)-4-(3,4-difluoro-2-methoxyphenyl)-5-methyl-1-trifluoromethyl-2-oxabicyclo[3.2.0]heptane-3-carboxamide], the inhibition at 0.1 µM at human Nav1.8 is no less than 50%. The same compound had a half-inhibitory concentration (IC50) against Nav1.8 sodium channel of less than 1 nM.
On to `COc1c([C@H]2[C@H](C(=O)Nc3ccnc(S(N)(=O)=O)c3)O[C@]3(C(F)(F)F)CC[C@]23C)ccc(F)c1F` (relative stereo) [Example 87, rel-(1R,3R,4S,5R)-4-(3,4-difluoro-2-methoxyphenyl)-5-methyl-N-(2-sulfamoylpyridin-4-yl)-1-trifluoromethyl-2-oxabicyclo[3.2.0]heptane-3-carboxamide], for which, at human Nav1.8, the inhibition at 0.1 µM was no less than 50%. In addition, at Nav1.8 sodium channel, the half-maximal inhibitory concentration (IC50) turned out to be 3 nM.
`COc1c(C2C(C(=O)Nc3ccc(C(N)=O)c(C(N)=O)c3)OC(C)(C(F)(F)F)C2C)ccc(F)c1F` (single isomer, unassigned) [Example 30-2]: the “Inhibitory activity (inhibition/% at 100 nM concentration)” value on human Nav1.8 (100 nM, 0.1 µM) is “A (A ≥ 50)”. On Nav1.8 sodium channel, the IC50 is less than 0.5 nM.
Take `COc1cc(NC(=O)c2ccc(-c3ccc(Cl)cc3)o2)cc(OC)c1` [Example A-803467]: the “selectivity (in words)” value in the data set on Nav1.8 is listed as “poor selectivity”. In data set [1], the “bioavailability (in words)” value is recorded as “low bioavailability” and the “pharmacokinetic data (in words)” value was “poor pharmacokinetic data”.
In the case of `CNC(=O)c1ccc(-c2cc(Cl)cc(Cl)c2Cl)c(N)n1` [PF-01247324], in the data set on Nav1.8, the “selectivity (in words)” value is “poor selectivity”. Further, in data set [1], the “bioavailability (in words)” value is on record as “low bioavailability” and the “pharmacokinetic data (in words)” value is recorded as “poor pharmacokinetic data”.
For the compound `C[C@@H](C(N)=O)[C@H](N)c1nc2ccc(C(C)(C)C)cc2[nH]1` [PF-06305591], the “selectivity (in words)” value in the data set with Nav1.8 is recorded as “poor selectivity”. Besides, in data set [1], the “bioavailability (in words)” value is “low bioavailability” and the “pharmacokinetic data (in words)” value is listed as “poor pharmacokinetic data”.
Turning to `COc1ccsc1CNCC[C@@]1(c2ccccn2)CCOC2(CCCC2)C1` [TRV-130], the PWT after modeling in data set [2] (TRV-130 0.5 mg/kg group, after modeling, pre-administration, 2.5 h after modeling) was 5.40 g. Moreover, the “PWT 2 h after administration” value in data set [2] (TRV-130 0.5 mg/kg, 2 h after administration) is 8.94 g.
